From the NIST ThermoML archive (doi:10.1016/j.fluid.2008.09.004)

Assays:
[1] = xn = mol fraction of the nth substance listed; conditions: 101 kPa, Liquid, Vibrating tube method
[2] = molar heat capacity at constant pressure; xn = mol fraction of the nth substance listed; conditions: 101 kPa, Liquid, Small sample (50 mg) DSC
[3] = excess molar enthalpy (molar enthalpy of mixing); xn = mol fraction of the nth substance listed; conditions: 303.15 K, 101 kPa, Liquid, Calvet calorimetry

CCCCn1cc[n+](C)c1.O=S(=O)([O-])C(F)(F)F [1-butyl-3-methylimidazolium trifluoromethanesulfonate] + CCO
Conditions	mass density, [1] [kg/m3]	molar heat capacity at constant pressure, [2] [J/K/mol]
293.15 K, x1 = 0.0522	881	128.2
293.15 K, x1 = 0.0982	944.5	143.3
293.15 K, x1 = 0.1976	1041.9	175.3
293.15 K, x1 = 0.2999	1111.4	207.9
293.15 K, x1 = 0.3996	1160.3	237.9
293.15 K, x1 = 0.4973	1196.9	267.2
293.15 K, x1 = 0.5923	1225.3	295.7
293.15 K, x1 = 0.6898	1249.1	326.5
293.15 K, x1 = 0.7868	1268.5	355.5
293.15 K, x1 = 0.8756	1283.7	382.4
293.15 K, x1 = 0.9283	1291.6	399
298.15 K, x1 = 0.0522	876.7	130
298.15 K, x1 = 0.0982	940.2	144.9
298.15 K, x1 = 0.1976	1037.7	176.8
298.15 K, x1 = 0.2999	1107.2	209.2
298.15 K, x1 = 0.3996	1156.1	239.4
298.15 K, x1 = 0.4973	1192.8	268.9
298.15 K, x1 = 0.5923	1221.2	297.3
298.15 K, x1 = 0.6898	1245	328.2
298.15 K, x1 = 0.7868	1264.5	357.6
298.15 K, x1 = 0.8756	1279.7	384.5
298.15 K, x1 = 0.9283	1287.6	401.2
303.15 K, x1 = 0.0522	872.5	131.8
303.15 K, x1 = 0.0982	935.9	146.4
303.15 K, x1 = 0.1976	1033.4	178.3
303.15 K, x1 = 0.2999	1103	210.6
303.15 K, x1 = 0.3996	1152	240.9
303.15 K, x1 = 0.4973	1188.7	270.7
303.15 K, x1 = 0.5923	1217.2	299
303.15 K, x1 = 0.6898	1241	330
303.15 K, x1 = 0.7868	1260.5	359.9
303.15 K, x1 = 0.8756	1275.7	386.8
303.15 K, x1 = 0.9283	1283.7	403.7
308.15 K, x1 = 0.0522	868.2	133.8
308.15 K, x1 = 0.0982	931.7	148.2
308.15 K, x1 = 0.1976	1029.2	180
308.15 K, x1 = 0.2999	1098.8	212.1
308.15 K, x1 = 0.3996	1147.9	242.6
308.15 K, x1 = 0.4973	1184.7	272.6
308.15 K, x1 = 0.5923	1213.1	301
308.15 K, x1 = 0.6898	1237	332
308.15 K, x1 = 0.7868	1256.5	362.3
308.15 K, x1 = 0.8756	1271.7	389.3
308.15 K, x1 = 0.9283	1279.7	406.3
313.15 K, x1 = 0.0522	863.9	135.8
313.15 K, x1 = 0.0982	927.4	150
313.15 K, x1 = 0.1976	1025	181.7
313.15 K, x1 = 0.2999	1094.7	213.7
313.15 K, x1 = 0.3996	1143.8	244.3
313.15 K, x1 = 0.4973	1180.6	274.6
313.15 K, x1 = 0.5923	1209.1	303
313.15 K, x1 = 0.6898	1233	334.1
313.15 K, x1 = 0.7868	1252.5	364.8
313.15 K, x1 = 0.8756	1267.7	391.9
313.15 K, x1 = 0.9283	1275.8	409
318.15 K, x1 = 0.0522	859.5	138
318.15 K, x1 = 0.0982	923	152
318.15 K, x1 = 0.1976	1020.7	183.6
318.15 K, x1 = 0.2999	1090.5	215.4
318.15 K, x1 = 0.3996	1139.6	246.2
318.15 K, x1 = 0.4973	1176.5	276.8
318.15 K, x1 = 0.5923	1205	305.1
318.15 K, x1 = 0.6898	1229	336.4
318.15 K, x1 = 0.7868	1248.5	367.5
318.15 K, x1 = 0.8756	1263.8	394.6
318.15 K, x1 = 0.9283	1271.8	411.9

[3]
Conditions	excess molar enthalpy [kcal/mol]
x1 = 0.0987	0.23
x1 = 0.2029	0.363
x1 = 0.2948	0.416
x1 = 0.4016	0.424
x1 = 0.4928	0.406
x1 = 0.5952	0.353
x1 = 0.6832	0.291
x1 = 0.8026	0.199
x1 = 0.8759	0.129

CCOS(=O)(=O)[O-].CCn1cc[n+](C)c1 [1-ethyl-3-methylimidazolium ethyl sulfate] + CCO
Conditions	mass density, [1] [kg/m3]	molar heat capacity at constant pressure, [2] [J/K/mol]
293.15 K, x1 = 0.0157	813.7	114.9
293.15 K, x1 = 0.05	860	–
293.15 K, x1 = 0.0523	862.6	124.6
293.15 K, x1 = 0.0978	913.4	137.1
293.15 K, x1 = 0.0991	914.6	–
293.15 K, x1 = 0.1944	996	163.7
293.15 K, x1 = 0.3073	1063.7	194.6
293.15 K, x1 = 0.4109	1109.6	223.4
293.15 K, x1 = 0.5084	1143.2	250.8
293.15 K, x1 = 0.5927	1167	274.9
293.15 K, x1 = 0.6995	1191.8	305.4
293.15 K, x1 = 0.7883	1208.9	331.1
293.15 K, x1 = 0.8797	1223.9	357.4
293.15 K, x1 = 0.9388	1232.5	374.4
298.15 K, x1 = 0.0157	809.5	116.8
298.15 K, x1 = 0.05	855.9	–
298.15 K, x1 = 0.0523	858.5	126.2
298.15 K, x1 = 0.0978	909.4	138.5
298.15 K, x1 = 0.0991	910.6	–
298.15 K, x1 = 0.1944	992.1	165
298.15 K, x1 = 0.3073	1060	195.9
298.15 K, x1 = 0.4109	1105.9	224.8
298.15 K, x1 = 0.5084	1139.6	252.3
298.15 K, x1 = 0.5927	1163.4	276.5
298.15 K, x1 = 0.6995	1188.3	307.2
298.15 K, x1 = 0.7883	1205.4	333
298.15 K, x1 = 0.8797	1220.5	359.4
298.15 K, x1 = 0.9388	1229.1	376.5
303.15 K, x1 = 0.0157	805.3	118.6
303.15 K, x1 = 0.05	851.8	–
303.15 K, x1 = 0.0523	854.4	127.9
303.15 K, x1 = 0.0978	905.3	139.9
303.15 K, x1 = 0.0991	906.6	–
303.15 K, x1 = 0.1944	988.3	166.3
303.15 K, x1 = 0.3073	1056.3	197.2
303.15 K, x1 = 0.4109	1102.3	226.3
303.15 K, x1 = 0.5084	1136	254
303.15 K, x1 = 0.5927	1159.9	278.3
303.15 K, x1 = 0.6995	1184.8	309
303.15 K, x1 = 0.7883	1202	335
303.15 K, x1 = 0.8797	1217.1	361.6
303.15 K, x1 = 0.9388	1225.7	378.8
308.15 K, x1 = 0.0157	801	120.7
308.15 K, x1 = 0.05	847.7	–
308.15 K, x1 = 0.0523	850.3	129.7
308.15 K, x1 = 0.0978	901.3	141.6
308.15 K, x1 = 0.0991	902.6	–
308.15 K, x1 = 0.1944	984.4	167.7
308.15 K, x1 = 0.3073	1052.6	198.8
308.15 K, x1 = 0.4109	1098.7	227.9
308.15 K, x1 = 0.5084	1132.5	255.8
308.15 K, x1 = 0.5927	1156.4	280.3
308.15 K, x1 = 0.6995	1181.4	311.1
308.15 K, x1 = 0.7883	1198.5	337.2
308.15 K, x1 = 0.8797	1213.7	364
308.15 K, x1 = 0.9388	1222.3	381.3
313.15 K, x1 = 0.0157	796.7	122.8
313.15 K, x1 = 0.05	843.5	–
313.15 K, x1 = 0.0523	846.1	131.6
313.15 K, x1 = 0.0978	897.3	143.2
313.15 K, x1 = 0.0991	898.5	–
313.15 K, x1 = 0.1944	980.6	169.2
313.15 K, x1 = 0.3073	1048.8	200.4
313.15 K, x1 = 0.4109	1095	229.6
313.15 K, x1 = 0.5084	1128.9	257.6
313.15 K, x1 = 0.5927	1152.9	282.3
313.15 K, x1 = 0.6995	1177.9	313.3
313.15 K, x1 = 0.7883	1195.1	339.5
313.15 K, x1 = 0.8797	1210.2	366.5
313.15 K, x1 = 0.9388	1218.9	383.9
318.15 K, x1 = 0.0157	792.3	125
318.15 K, x1 = 0.05	839.2	–
318.15 K, x1 = 0.0523	841.9	133.6
318.15 K, x1 = 0.0978	893.2	145
318.15 K, x1 = 0.0991	894.4	–
318.15 K, x1 = 0.1944	976.6	170.9
318.15 K, x1 = 0.3073	1045.1	202.2
318.15 K, x1 = 0.4109	1091.4	231.5
318.15 K, x1 = 0.5084	1125.3	259.7
318.15 K, x1 = 0.5927	1149.3	284.5
318.15 K, x1 = 0.6995	1174.4	315.6
318.15 K, x1 = 0.7883	1191.7	342
318.15 K, x1 = 0.8797	1206.9	369.1
318.15 K, x1 = 0.9388	1215.5	386.7

[3]
Conditions	excess molar enthalpy [kcal/mol]
x1 = 0.0486	0.125
x1 = 0.1198	0.26
x1 = 0.1961	0.302
x1 = 0.2952	0.315
x1 = 0.3917	0.297
x1 = 0.4937	0.276
x1 = 0.6087	0.22
x1 = 0.7017	0.171
x1 = 0.7963	0.118
x1 = 0.8774	0.0731
